The target in this assay is T1, commercial enzyme AChE from Electrophorus electricus (Electrophorus electricus, UniProt O42275).
T1 construct: commercial enzyme (Sigma), native
Nature of the assay: Ellman assay, […] nm, 96-well plate. The class given is biochemical. The note with it: AChE 1 U/mL; phosphate buffer 0.1 mol/L pH 8.0; 10 µL of 20 mmol/L acetylthiocholine iodide in 200 µL; 10 min preincubation, room temperature; Haldol formulation. In general terms: Ellman's reagent forms a yellow product with free thiols.

Data on one compound can be found in paper PMC11678777, “Haloperidol-Induced Catalepsy and Its Correlations with Acetylcholinesterase Activity in Different Brain Structures of Mice” (Neurology International, 2024).

T1 sequence (O42275 24-633): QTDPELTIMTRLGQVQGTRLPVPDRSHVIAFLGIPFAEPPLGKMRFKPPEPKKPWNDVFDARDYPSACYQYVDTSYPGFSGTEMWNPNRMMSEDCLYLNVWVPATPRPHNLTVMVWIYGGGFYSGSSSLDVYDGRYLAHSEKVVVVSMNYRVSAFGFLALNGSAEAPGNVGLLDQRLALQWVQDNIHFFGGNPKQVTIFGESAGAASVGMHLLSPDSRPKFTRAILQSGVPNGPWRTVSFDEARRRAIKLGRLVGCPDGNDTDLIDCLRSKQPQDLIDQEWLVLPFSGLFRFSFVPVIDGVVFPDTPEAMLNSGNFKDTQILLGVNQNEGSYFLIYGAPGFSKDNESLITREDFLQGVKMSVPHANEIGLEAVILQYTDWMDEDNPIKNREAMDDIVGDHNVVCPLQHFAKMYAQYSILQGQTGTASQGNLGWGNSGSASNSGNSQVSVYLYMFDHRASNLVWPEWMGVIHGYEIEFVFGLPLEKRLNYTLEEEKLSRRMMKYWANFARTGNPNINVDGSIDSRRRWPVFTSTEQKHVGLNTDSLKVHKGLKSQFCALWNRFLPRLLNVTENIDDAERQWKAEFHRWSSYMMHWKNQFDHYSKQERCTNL

For `O=C(CCCN1CCC(O)(c2ccc(Cl)cc2)CC1)c1ccc(F)cc1` [Haloperidol], the dose-dependent inhibition entry was “Hal inhibited commercial AChE activity in a dose-dependent manner”.
